Test [1] relates to CFA-induced paw radiant heat hypersensitivity. Briefly: CFA-induced paw radiant heat hypersensitivity. The format is in vivo, rat. Particulars: Rattus norvegicus, po, 30 mg/kg p.o., HPβCD, last time point 180 or 300 min. The procedure:
Each rat was placed in a test chamber on a warm glass surface and allowed to acclimate for approximately 10 min. A radiant thermal stimulus (beam of light) was then focused through the glass onto the plantar surface of each hind paw in turn. The thermal stimulus was automatically shut off by a photoelectric relay when the paw was moved or when the cut-off time was reached (20 sec for radiant heat at ˜5 amps). An initial (baseline) response latency to the thermal stimulus was recorded for each animal prior to the injection of complete Freund's adjuvant (CFA). […] Immediately following the post-CFA latency assessment, the indicated test compound or vehicle was administered orally.
The percent reversal (% R) of hypersensitivity was calculated in one of two different ways: 1) using group mean values or 2) using individual animal values. More specifically:
Method 2. For some compounds, the % R of hypersensitivity was calculated separately for each animal according to the following formula: % reversal=[(individual treatment response−individual CFA response)/(individual baseline response−individual CFA response)]×100. Results are given as a mean of the maximum % reversal values calculated for each individual animal.

For test [2], the target named is T1, mutant MGL (Homo sapiens, UniProt Q99685, L169S/L176S).
T1 sequence (Q99685 1-303 L169S/L176S): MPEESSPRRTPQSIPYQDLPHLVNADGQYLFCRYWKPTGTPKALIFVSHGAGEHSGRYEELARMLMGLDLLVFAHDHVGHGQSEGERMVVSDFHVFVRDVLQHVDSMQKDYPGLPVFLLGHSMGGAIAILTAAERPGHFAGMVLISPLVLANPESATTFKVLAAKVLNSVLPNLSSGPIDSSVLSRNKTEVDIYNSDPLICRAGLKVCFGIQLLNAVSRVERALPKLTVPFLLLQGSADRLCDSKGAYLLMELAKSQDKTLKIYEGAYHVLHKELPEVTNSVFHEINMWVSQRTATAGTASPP
Briefly: MGL ThermoFluor assay - mutant. Format: binding. (In general: DSF heats the sample and reads unfolding from a dye or from intrinsic fluorescence.)

Test [3] concerns the target T2, MGL (Rattus norvegicus, UniProt Q8R431).
T2 construct: one g rat brain was homogenized using a Polytron homogenizer; from tissue; host or cells: rat brain homogenate
T2 sequence (Q8R431 1-303): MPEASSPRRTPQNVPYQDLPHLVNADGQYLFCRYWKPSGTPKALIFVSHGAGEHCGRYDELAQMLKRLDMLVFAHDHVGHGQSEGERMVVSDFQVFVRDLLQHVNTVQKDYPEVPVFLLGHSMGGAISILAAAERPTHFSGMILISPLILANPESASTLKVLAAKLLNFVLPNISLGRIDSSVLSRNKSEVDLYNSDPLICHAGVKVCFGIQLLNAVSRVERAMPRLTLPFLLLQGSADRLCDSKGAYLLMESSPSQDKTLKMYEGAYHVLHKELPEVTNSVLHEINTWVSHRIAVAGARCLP
Briefly: 2-AG accumulation assay in rat brain homogenate. The format is biochemical. Particulars: rat brain homogenate, 2-AG accumulation as percent of vehicle; for 2-AG accumulation, % of vehicle control at 1 µM: compound 1 μM, read-out: Rat Brain 2AG % VehCntrl (%) @ 1 μM.

Test [4] addresses T3, purified wild type MGL (wt-MGLL 6H-11-313) (Homo sapiens, UniProt Q99685).
T3 sequence (Q99685 1-303): T1 sequence (Q99685 1-303 L169S/L176S) with S169L, S176L

[5] abbreviates: group mean values, read-out: CFA thermal hypersensitivity Method 1: peak % reversal.
[6] abbreviates: individual animal values, read-out: CFA thermal hypersensitivity Method 2: peak % reversal.
Setting [7] is: compound concentration measured by qNMR, read-out: MGL mutant ThermoFluor qKd (using qNMR conc.).
The mark [8] stands for this setting: ThermoFluor concentration-response, read-out: MGL mutant ThermoFluor Kd.
[9] abbreviates: ThermoFluor, compound concentration measured by qNMR, read-out: MGL mutant ThermoFluor qKd (μM) (using qNMR conc.).

SMILES strings stand for the structures. Changes are numbered by the printed parent chain. Where two headings read alike, the source gives them in different places.

Turning to `O=C(c1ccc2nc(-c3ccccc3)oc2c1)N1CC(N2CCN(C(=O)c3nccs3)CC2)C1` [Cpd 318, 2-Phenyl-6-({3-[4-(1,3-thiazol-2-ylcarbonyl)piperazin-1-yl]azetidin-1-yl}carbonyl)-1,3-benzoxazole], in test [1] (setting [5]), the inhibition in vivo at 30 mg/kg came out at 44.7%.
Same read-out and setting: with `O=C(c1ccccc1)N1CCN(C2CN(C(=O)c3ccc4c(ccn4-c4ccc(F)cc4)c3)C2)CC1` [Cpd 567, 1-(4-Fluorophenyl)-5-({3-[4-(phenylcarbonyl)piperazin-1-yl]azetidin-1-yl}carbonyl)-1H-indole] the figure was 63.1%.
With `O=C(c1cscn1)N1CCN(C2CN(C(=O)c3sc4cc(C(F)(F)F)ccc4c3Cl)C2)CC1` [Cpd 335, 1-(1-{[3-Chloro-6-(trifluoromethyl)-1-benzothiophen-2-yl]carbonyl}azetidin-3-yl)-4-(1,3-thiazol-4-ylcarbonyl)piperazine], the inhibition in vivo at 30 mg/kg in test [1] (setting [5]) worked out at 108%; in test [1] (setting [6]), 135%.
As to `O=C(c1ccc2nc(-c3ccccc3)oc2c1)N1CC(N2CCN(C(=O)c3cscn3)CC2)C1` [Cpd 1141, 2-Phenyl-6-({3-[4-(1,3-thiazol-4-ylcarbonyl)piperazin-1-yl]azetidin-1-yl}carbonyl)-1,3-benzoxazole], the inhibition in vivo at 30 mg/kg in test [1] (setting [5]) turned out to be 5.7%.
With `O=C(c1ccc2c(ccn2-c2ccc(F)cc2)c1)N1CC(N2CCN(C(=O)c3nccs3)CC2)C1` [Cpd 487, 1-(4-Fluorophenyl)-5-({3-[4-(1,3-thiazol-2-ylcarbonyl)piperazin-1-yl]azetidin-1-yl}carbonyl)-1H-indole], the inhibition in vivo at 30 mg/kg in test [1] (setting [5]) is 109%; in test [1] (setting [6]) it was 166%.
Consider `O=C(c1ccc2c(c1)CCN2c1ccc(F)cc1)N1CC(N2CCN(C(=O)c3cscn3)CC2)C1` [Cpd 1081], for which, in test [2] (setting [7]), the Kd came out at 0.019 µM. The 2-AG accumulation, % of vehicle control at 1 µM in test [3] came out at 622%. Also, half-maximal inhibition in test [4] (IC50) required 9 nM.
As for `O=C(c1nccs1)N1CCN(C2CN(C(=O)c3nn(-c4ccc(Cl)cc4Cl)c4c3CSC/C4=C\c3ccc(F)cc3)C2)CC1` [Cpd 1021], in test [2] (setting [8]), the Kd turned out to be 0.239 µM. The 2-AG accumulation, % of vehicle control at 1 µM in test [3] was found to be 232%. In addition, the IC50 (usually the concentration needed to halve the response being measured) in test [4] was 15 nM.
For `O=C(c1ccc(-c2nc(-c3ccccc3)cs2)cc1)N1CC(N2CCN(C(=O)c3nccs3)CC2)C1` [Cpd 1326] the same measures were 0.004 µM, 944% and less than 5 nM.
For `O=C(c1nccs1)N1CCN(C2CN(C(=O)c3sc4ccc(-c5ccc(C(F)(F)F)cc5)cc4c3F)C2)CC1` [Cpd 1092] the same measures were 0.005 µM, 838% and 11 nM.
For `O=C(c1ccns1)N1CC(N2CCN(C(=O)c3cc4cc(C(F)(F)F)ccc4s3)CC2)C1` [Cpd 703, 1-[1-(Isothiazol-5-ylcarbonyl)azetidin-3-yl]-4-{[5-(trifluoromethyl)-1-benzothiophen-2-yl]carbonyl}piperazine], in that order: 0.05 µM, 346% and 88 nM.
On to `CC(C)Cc1ccc(C(=O)N2CC(N3CCN(C(=O)c4nccs4)CC3)C2)cc1` [Cpd 891], for which the Kd in test [2] (setting [8]) is 0.008 µM. Moreover, the 2-AG accumulation, % of vehicle control at 1 µM in test [3] worked out at 422%. In addition, in test [4], the IC50 was less than 5 nM.
For `O=C(c1nccs1)N1CCN(C2CN(C(=O)c3sc4cc(F)ccc4c3C3CCC3)C2)CC1` [Cpd 695], in that order: 0.001 µM, 497% and 57 nM.
For `O=C(c1nccs1)N1CCN(C2CN(C(=O)c3sc4cc(-c5ccc(C(F)(F)F)cc5)ccc4c3F)C2)CC1` [Cpd 1063], in that order: 0.003 µM, 846% and 7 nM.
In the case of `Cn1cc(Cc2ccc(F)cc2)c2ccc(C(=O)N3CC(N4CCN(C(=O)c5ccc[nH]5)CC4)C3)cc21` [Cpd 1028], in test [2] (setting [7]), the Kd is 0.011 µM. For the same compound, the 2-AG accumulation, % of vehicle control at 1 µM in test [3] turned out to be 647%. Besides, the midpoint of inhibition in test [4], the IC50, lay at 16 nM.
For `O=C(c1nccs1)N1CCN(C2CN(C(=O)c3sc4ccc(-c5ccccc5)cc4c3F)C2)CC1` [Cpd 1315, 1-{1-[(3-Fluoro-5-phenyl-1-benzothiophen-2-yl)carbonyl]azetidin-3-yl}-4-(1,3-thiazol-2-ylcarbonyl)piperazine], in test [2] (setting [8]), the Kd came to 0.002 µM. Also, the 2-AG accumulation, % of vehicle control at 1 µM in test [3] amounted to 486%. The compound also showed an IC50 in test [4] of less than 5 nM.
For the compound `Cc1nc(-c2ccc(F)cc2)sc1C(=O)N1CC(N2CCN(C(=O)c3nccs3)CC2)C1` [Cpd 1150], the Kd in test [2] (setting [8]) is 0.013 µM. Moreover, the 2-AG accumulation, % of vehicle control at 0.1 µM in test [3] (compound 0.1 μM, read-out: Rat Brain 2AG % VehCntrl (%) @ 0.1 μM) stood at 139%. Further, the 2-AG accumulation, % of vehicle control at 1 µM in test [3] turned out to be 459%. Further, the 2-AG accumulation, % of vehicle control at 10 µM in test [3] (compound 10 μM, read-out: Rat Brain 2AG % VehCntrl (%) @ 10 μM) turned out to be 715%. Besides, half-maximal inhibition in test [4] (IC50) was put at 36 nM.
For `O=C(c1nccs1)N1CCN(C2CN(C(=O)c3ccc(-c4ccccc4)cc3Cl)C2)CC1` [Cpd 1323], the Kd in test [2] (setting [8]) was 0.004 µM. Moreover, the 2-AG accumulation, % of vehicle control at 1 µM in test [3] turned out to be 297%. The IC50 in test [4] was less than 5 nM.
With `O=C(c1nccs1)N1CCN(C2CN(C(=O)c3cccc(-c4ccccc4)c3F)C2)CC1` [Cpd 1172], in test [2] (setting [8]), the Kd came out at 0.178 µM. In addition, in test [3], the 2-AG accumulation, % of vehicle control at 1 µM was 931%. Also, the IC50 in test [4] stood at 63 nM.
`N#Cc1ccccc1-n1ccc2cc(C(=O)N3CC(N4CCN(C(=O)c5cscn5)CC4)C3)ccc21` [Cpd 1182]: the Kd in test [2] (setting [9]) is 0.21 µM. In test [3], the 2-AG accumulation, % of vehicle control at 1 µM is 547%. For the same compound, 79 nM corresponded to half-maximal inhibition in test [4] (IC50).
For `Cc1cc(C(=O)N2CC(N3CCN(C(=O)c4nccs4)CC3)C2)sc1-c1cccc(F)c1` [Cpd 1065] the same measures were 0.036 µM, 531% and 7 nM.
`O=C(c1ccoc1)N1CCN(C2CN(C(=O)c3ccc(-c4ccccc4)cc3)C2)CC1` [Cpd 1140]: the Kd in test [2] (ThermoFluor thermal stability binding assay, read-out: MGL mutant ThermoFluor Kd) is 0.112 µM. Besides, in test [3], the 2-AG accumulation, % of vehicle control at 1 µM was 200%. In test [4], this compound gave an IC50 of 27 nM.
On to `O=C(c1cccc(-c2cccc(C(F)(F)F)c2)c1)N1CC(N2CCN(C(=O)c3cscn3)CC2)C1` [Cpd 1188], for which the Kd in test [2] (setting [8]) came to 0.855 µM. Further, the 2-AG accumulation, % of vehicle control at 1 µM in test [3] worked out at 187%. For the same compound, in test [4], the IC50 is 94 nM.
On to `O=C(c1ccccc1)N1CCN(C2CN(C(=O)c3ccc4c(ccn4-c4cc(F)c(F)c(F)c4)c3)C2)CC1` [Cpd 569], for which, in test [2] (setting [9]), the Kd amounted to 0.059 µM. For the same compound, the 2-AG accumulation, % of vehicle control at 1 µM in test [3] was determined as 198%. In test [4], this compound gave an IC50 of 21 nM.
For `O=C(c1cc(-c2ccc(F)cc2)cs1)N1CC(N2CCN(C(=O)c3nccs3)CC2)C1` [Cpd 1157] the same measures were 0.179 µM, 252% and 41 nM.
In the case of `O=C(c1ccc2c(c1)CCN2c1ccc(F)cc1)N1CC(N2CCN(C(=O)c3ccc[nH]3)CC2)C1` [Cpd 1099], the Kd in test [2] (setting [7]) is 0.02 µM. The 2-AG accumulation, % of vehicle control at 1 µM in test [3] worked out at 508%. The compound further displayed an IC50 in test [4] of 12 nM.

The record behind these values is patent publication US8362000B2, “Azetidinyl diamides as monoacylglycerol lipase inhibitors” (Janssen Pharmaceutica NV, priority 2009, dated 2013).
